Data set [1] has as its target High affinity 3',5'-cyclic-AMP phosphodiesterase 7A (Homo sapiens) (UniProt Q13946). Put plainly: Panlabs assay PDE7A. Set-up: compound concentration 10 uM. Particulars: at 10 µM; call rule not given here.
Data set [2] has as its target High affinity cAMP-specific and IBMX-insensitive 3',5'-cyclic phosphodiesterase 8A (Homo sapiens, UniProt O60658). Put plainly: Panlabs assay PDE8A1. Set-up: compound concentration 10 uM. The following applies: at 10 µM.
Data set [3] concerns the target cAMP and cAMP-inhibited cGMP 3',5'-cyclic phosphodiesterase 10A (Homo sapiens, UniProt Q9Y233). Put plainly: Panlabs assay PDE10A2. Set-up: compound concentration 10 uM. The following applies: at 10 µM.
The target of data set [4] is T1, cGMP-specific 3',5'-cyclic phosphodiesterase (Homo sapiens, UniProt O76074). Put plainly: Panlabs assay PDE5A. Also noted: compound concentration 10 uM. Particulars: at 10 µM.
The target of data set [5] is High affinity cGMP-specific 3',5'-cyclic phosphodiesterase 9A (Homo sapiens, UniProt O76083). Put plainly: Panlabs assay PDE9A2. Also noted: compound concentration 10 uM.
Data set [6] addresses L-type calcium channel, dihydropyridine site (Rattus norvegicus, UniProt P22002+P27732+Q02485). Put plainly: Calcium Channel L-Type, Dihydropyridine Eurofins Panlabs panel. The class given is protein assay. Particulars: compound concentration 10 uM.
Data set [7] addresses T2, Muscarinic acetylcholine receptor M2 (Homo sapiens) (UniProt P08172).
T2 sequence (whole entry): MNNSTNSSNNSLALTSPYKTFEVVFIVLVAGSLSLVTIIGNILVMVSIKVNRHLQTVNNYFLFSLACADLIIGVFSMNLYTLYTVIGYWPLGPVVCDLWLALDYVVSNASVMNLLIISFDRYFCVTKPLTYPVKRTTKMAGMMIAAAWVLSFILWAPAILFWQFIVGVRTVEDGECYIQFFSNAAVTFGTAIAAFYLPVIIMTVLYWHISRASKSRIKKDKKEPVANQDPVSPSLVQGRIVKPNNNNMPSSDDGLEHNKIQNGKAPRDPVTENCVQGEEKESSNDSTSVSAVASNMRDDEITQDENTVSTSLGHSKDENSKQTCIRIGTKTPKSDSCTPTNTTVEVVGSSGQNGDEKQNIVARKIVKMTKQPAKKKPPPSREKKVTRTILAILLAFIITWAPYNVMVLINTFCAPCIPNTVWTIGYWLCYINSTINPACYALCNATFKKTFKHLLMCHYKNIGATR
Put plainly: Muscarinic M2 Eurofins Panlabs panel. Particulars: Compound concentration 10.0 uM.

Data set [8] deals with GABA-A receptor; anion channel (Rattus norvegicus) (UniProt O09028+P15431+P18506+P18508+P19969+P20236+P23574+P23576+P28471+P28473+P30191+P62813+P63079+P63138+Q91ZM7+Q9ES14). In words: GABAA, Muscimol, Central Eurofins Panlabs panel. Format: protein-complex assay. The following applies: Compound concentration 10.0 uM.
The target of data set [9] is T3, Alpha-2A adrenergic receptor (Homo sapiens) (UniProt P08913).
T3 sequence (whole entry): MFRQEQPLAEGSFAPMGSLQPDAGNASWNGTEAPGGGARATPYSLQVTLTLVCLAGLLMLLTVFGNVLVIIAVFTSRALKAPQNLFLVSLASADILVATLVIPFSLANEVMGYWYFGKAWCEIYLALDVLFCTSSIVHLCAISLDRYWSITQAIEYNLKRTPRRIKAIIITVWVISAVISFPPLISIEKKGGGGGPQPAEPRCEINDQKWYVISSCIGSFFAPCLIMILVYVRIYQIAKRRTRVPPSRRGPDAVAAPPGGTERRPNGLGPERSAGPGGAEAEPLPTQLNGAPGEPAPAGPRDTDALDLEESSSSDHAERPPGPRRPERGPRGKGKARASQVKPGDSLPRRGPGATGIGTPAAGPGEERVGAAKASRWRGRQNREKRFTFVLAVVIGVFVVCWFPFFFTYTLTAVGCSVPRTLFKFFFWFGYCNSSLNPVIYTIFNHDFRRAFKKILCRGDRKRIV
Put plainly: Adrenergic alpha2A Eurofins Panlabs panel. Particulars: Compound concentration 10.0 uM.

Data set [10] concerns the target Sodium-dependent serotonin transporter (Homo sapiens) (UniProt P31645). Put plainly: Transporter, Serotonin (5-Hydroxytryptamine) (SERT) Eurofins Panlabs panel. Particulars: Compound concentration 10.0 uM.
Data set [11] deals with Substance-P receptor (Homo sapiens) (UniProt P25103). Put plainly: Tachykinin NK1 Eurofins Panlabs panel. The following applies: Compound concentration 10.0 uM.
Data set [12] concerns the target Insulin receptor (Rattus norvegicus) (UniProt P15127). In words: Insulin Eurofins Panlabs panel. Particulars: Compound concentration 10.0 uM.
The target in data set [13] is Histamine H3 receptor (Homo sapiens) (UniProt Q9Y5N1). Put plainly: Histamine H3 Eurofins Panlabs panel. Particulars: Compound concentration 10.0 uM.
In data set [14] the target is T4, 5-hydroxytryptamine receptor 2C (Homo sapiens) (UniProt P28335).
T4 sequence (whole entry): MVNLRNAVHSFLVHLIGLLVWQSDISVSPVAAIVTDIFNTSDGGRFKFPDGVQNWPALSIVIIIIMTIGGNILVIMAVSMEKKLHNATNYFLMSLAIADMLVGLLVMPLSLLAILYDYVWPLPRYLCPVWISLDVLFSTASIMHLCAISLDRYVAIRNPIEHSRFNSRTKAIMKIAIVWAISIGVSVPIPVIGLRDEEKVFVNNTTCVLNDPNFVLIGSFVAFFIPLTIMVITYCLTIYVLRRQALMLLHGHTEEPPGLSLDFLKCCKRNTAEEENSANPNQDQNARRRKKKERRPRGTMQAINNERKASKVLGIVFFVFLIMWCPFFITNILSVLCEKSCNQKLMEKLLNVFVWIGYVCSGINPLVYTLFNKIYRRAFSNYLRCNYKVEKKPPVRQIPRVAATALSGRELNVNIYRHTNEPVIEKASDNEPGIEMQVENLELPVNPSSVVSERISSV
In words: Serotonin (5-Hydroxytryptamine) 5-HT2C Eurofins Panlabs panel. The following applies: Compound concentration 10.0 uM.

For data set [15], the target named is Acetylcholinesterase (Homo sapiens) (UniProt P22303). Put plainly: Cholinesterase, Acetyl, ACES Eurofins Panlabs panel. The following applies: Compound concentration 10.0 uM.
The target in data set [16] is Dual 3',5'-cyclic-AMP and -GMP phosphodiesterase 11A (Homo sapiens, UniProt Q9HCR9). In words: 3H-cAMP and 3H-cGMP Scintillation Proximity Assay (PDE11A). On the technique in general: Scintillation proximity formats need no separation of bound from free tracer.
Data set [17] deals with Nitric oxide synthase, inducible (Mus musculus) (UniProt P29477). In words: Nitric Oxide Synthetase, Inducible (iNOS) Eurofins Panlabs panel. Particulars: Compound concentration 10.0 uM.
Data set [18] deals with Motilin receptor (Homo sapiens) (UniProt O43193). Put plainly: Motilin Eurofins Panlabs panel. The following applies: concentration not given here.
The target in data set [19] is Sodium-dependent dopamine transporter (Homo sapiens) (UniProt Q01959). In words: Transporter, Dopamine (DAT) Eurofins Panlabs panel. Particulars: Compound concentration 10.0 uM.
For data set [20], the target named is Monoamine oxidase B (MAO-B) (Homo sapiens, UniProt P27338). Put plainly: Monoamine Oxidase MAO-B Eurofins Panlabs panel. The following applies: compound concentration 10 uM.
For data set [21], the target named is Angiotensin-converting enzyme (Oryctolagus cuniculus) (UniProt P12822). In words: Peptidase, Angiotensin Converting Enzyme Eurofins Panlabs panel. Particulars: Compound concentration 10.0 uM.
Data set [22] deals with Estrogen receptor (Homo sapiens) (UniProt P03372). In words: Estrogen Eralpha Eurofins Panlabs panel. The following applies: Compound concentration 10.0 uM.
Data set [23] deals with 5-hydroxytryptamine receptor 2A (Homo sapiens) (UniProt P28223). Put plainly: Serotonin (5-Hydroxytryptamine) 5-HT2A Eurofins Panlabs panel. Particulars: Compound concentration 10.0 uM.
Data set [24] deals with T1, cGMP-specific 3',5'-cyclic phosphodiesterase. In words: 3H-cAMP and 3H-cGMP Scintillation Proximity Assay (PDE5A).
Data set [25] has as its target Histamine H2 receptor (Homo sapiens) (UniProt P25021). Put plainly: Histamine H2 Eurofins Panlabs panel. Particulars: Compound concentration 10.0 uM.
The target in data set [26] is Sodium-dependent noradrenaline transporter (Homo sapiens) (UniProt P23975). In words: Transporter, Norepinephrine (NET) Eurofins Panlabs panel. Particulars: Compound concentration 10.0 uM.

Each structure is given as a SMILES string.

Sequence of High affinity 3',5'-cyclic-AMP phosphodiesterase 7A (Homo sapiens) (Q13946 whole entry): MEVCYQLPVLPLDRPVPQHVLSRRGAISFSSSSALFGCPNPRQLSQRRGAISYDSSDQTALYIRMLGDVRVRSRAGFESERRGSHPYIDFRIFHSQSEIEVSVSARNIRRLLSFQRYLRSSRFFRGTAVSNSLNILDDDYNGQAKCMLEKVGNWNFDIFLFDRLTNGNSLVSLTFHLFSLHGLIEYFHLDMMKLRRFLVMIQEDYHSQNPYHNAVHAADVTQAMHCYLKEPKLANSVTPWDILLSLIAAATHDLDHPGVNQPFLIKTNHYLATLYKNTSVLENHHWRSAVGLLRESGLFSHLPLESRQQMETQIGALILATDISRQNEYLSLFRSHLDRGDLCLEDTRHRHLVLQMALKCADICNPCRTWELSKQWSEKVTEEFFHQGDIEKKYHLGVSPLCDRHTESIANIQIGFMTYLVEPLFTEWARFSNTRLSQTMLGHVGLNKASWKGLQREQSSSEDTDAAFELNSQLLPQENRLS
Sequence of Estrogen receptor (Homo sapiens) (P03372 whole entry): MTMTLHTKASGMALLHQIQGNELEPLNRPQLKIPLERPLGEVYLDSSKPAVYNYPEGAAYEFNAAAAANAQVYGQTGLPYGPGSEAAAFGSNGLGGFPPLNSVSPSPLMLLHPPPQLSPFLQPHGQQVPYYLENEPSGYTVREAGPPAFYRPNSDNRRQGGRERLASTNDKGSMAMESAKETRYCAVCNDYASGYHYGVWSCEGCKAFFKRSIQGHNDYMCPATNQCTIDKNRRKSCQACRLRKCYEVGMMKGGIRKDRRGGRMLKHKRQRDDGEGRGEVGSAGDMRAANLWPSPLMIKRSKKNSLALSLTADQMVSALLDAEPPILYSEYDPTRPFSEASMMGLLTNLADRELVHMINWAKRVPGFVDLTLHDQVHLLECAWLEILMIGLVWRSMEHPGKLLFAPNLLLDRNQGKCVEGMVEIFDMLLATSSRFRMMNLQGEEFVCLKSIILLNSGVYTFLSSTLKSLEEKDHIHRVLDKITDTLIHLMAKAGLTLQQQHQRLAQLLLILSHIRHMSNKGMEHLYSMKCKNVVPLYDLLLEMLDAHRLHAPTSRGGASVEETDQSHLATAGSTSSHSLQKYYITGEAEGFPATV
Sequence of Motilin receptor (Homo sapiens) (O43193 whole entry): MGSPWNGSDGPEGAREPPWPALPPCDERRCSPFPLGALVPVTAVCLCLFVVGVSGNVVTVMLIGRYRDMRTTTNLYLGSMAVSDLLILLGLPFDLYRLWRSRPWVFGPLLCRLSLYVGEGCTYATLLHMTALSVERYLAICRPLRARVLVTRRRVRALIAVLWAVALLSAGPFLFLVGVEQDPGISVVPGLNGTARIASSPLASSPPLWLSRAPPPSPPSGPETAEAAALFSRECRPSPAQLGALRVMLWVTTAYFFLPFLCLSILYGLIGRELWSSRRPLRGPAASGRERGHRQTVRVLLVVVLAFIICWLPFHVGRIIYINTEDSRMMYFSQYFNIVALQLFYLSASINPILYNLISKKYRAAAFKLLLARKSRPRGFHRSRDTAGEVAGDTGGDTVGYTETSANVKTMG
Sequence of Histamine H2 receptor (Homo sapiens) (P25021 whole entry): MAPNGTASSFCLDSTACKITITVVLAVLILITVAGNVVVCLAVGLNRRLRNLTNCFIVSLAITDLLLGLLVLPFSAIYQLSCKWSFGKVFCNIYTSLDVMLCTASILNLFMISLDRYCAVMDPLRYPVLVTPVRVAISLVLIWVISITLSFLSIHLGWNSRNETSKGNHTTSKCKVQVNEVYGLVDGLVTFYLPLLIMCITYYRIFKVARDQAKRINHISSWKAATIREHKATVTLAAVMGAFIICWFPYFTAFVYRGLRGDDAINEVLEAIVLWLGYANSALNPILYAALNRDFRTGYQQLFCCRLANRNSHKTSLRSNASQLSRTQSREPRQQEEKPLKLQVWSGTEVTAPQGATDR
Sequence of High affinity cGMP-specific 3',5'-cyclic phosphodiesterase 9A (O76083 whole entry): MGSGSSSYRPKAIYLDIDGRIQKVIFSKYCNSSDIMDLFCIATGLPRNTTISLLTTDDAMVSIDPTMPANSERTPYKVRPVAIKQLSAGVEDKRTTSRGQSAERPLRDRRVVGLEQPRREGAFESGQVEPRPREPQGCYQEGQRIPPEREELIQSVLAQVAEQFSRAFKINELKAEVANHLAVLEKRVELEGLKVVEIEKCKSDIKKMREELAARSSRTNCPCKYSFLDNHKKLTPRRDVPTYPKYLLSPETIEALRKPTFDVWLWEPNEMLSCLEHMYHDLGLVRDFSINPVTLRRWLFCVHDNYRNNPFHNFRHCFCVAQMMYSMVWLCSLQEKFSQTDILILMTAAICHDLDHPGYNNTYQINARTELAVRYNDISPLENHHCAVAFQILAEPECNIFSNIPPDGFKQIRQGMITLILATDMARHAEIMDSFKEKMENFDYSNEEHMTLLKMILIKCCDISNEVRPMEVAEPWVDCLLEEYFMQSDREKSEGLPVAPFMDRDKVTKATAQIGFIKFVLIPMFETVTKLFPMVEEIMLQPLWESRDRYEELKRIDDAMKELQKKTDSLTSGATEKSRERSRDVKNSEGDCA
Sequence of Monoamine oxidase B (MAO-B) (P27338 whole entry): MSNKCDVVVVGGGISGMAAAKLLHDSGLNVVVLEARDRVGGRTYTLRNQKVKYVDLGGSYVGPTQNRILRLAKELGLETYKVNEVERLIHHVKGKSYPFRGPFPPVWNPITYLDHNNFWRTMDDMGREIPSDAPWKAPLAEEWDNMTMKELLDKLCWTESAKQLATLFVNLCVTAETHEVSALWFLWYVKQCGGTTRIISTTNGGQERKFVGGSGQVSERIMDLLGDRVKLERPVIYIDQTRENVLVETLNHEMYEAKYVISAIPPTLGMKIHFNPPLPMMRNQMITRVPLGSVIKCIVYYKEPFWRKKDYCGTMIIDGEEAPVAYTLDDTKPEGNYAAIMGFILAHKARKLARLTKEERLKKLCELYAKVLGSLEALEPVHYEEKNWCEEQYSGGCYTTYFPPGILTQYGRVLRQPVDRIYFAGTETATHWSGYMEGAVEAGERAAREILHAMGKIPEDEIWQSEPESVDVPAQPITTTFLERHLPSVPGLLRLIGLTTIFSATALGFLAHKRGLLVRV
Sequence of Acetylcholinesterase (Homo sapiens) (P22303 whole entry): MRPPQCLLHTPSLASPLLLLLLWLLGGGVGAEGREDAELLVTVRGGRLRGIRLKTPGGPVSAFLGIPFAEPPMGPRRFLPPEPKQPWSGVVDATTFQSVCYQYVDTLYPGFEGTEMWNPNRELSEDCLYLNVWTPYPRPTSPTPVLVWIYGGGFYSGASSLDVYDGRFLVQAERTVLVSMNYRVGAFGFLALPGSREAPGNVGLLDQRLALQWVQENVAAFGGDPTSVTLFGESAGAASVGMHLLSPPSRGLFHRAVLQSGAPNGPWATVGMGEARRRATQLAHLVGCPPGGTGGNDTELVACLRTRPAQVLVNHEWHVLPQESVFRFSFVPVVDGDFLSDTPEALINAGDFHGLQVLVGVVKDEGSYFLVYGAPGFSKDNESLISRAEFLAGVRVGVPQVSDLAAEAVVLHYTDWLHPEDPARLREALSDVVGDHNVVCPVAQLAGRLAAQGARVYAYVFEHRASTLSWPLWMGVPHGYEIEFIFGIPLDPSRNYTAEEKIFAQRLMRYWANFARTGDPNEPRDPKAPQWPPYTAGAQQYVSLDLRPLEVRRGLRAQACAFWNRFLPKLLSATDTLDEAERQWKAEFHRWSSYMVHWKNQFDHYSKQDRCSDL
Sequence of Sodium-dependent serotonin transporter (Homo sapiens) (P31645 whole entry, looked up): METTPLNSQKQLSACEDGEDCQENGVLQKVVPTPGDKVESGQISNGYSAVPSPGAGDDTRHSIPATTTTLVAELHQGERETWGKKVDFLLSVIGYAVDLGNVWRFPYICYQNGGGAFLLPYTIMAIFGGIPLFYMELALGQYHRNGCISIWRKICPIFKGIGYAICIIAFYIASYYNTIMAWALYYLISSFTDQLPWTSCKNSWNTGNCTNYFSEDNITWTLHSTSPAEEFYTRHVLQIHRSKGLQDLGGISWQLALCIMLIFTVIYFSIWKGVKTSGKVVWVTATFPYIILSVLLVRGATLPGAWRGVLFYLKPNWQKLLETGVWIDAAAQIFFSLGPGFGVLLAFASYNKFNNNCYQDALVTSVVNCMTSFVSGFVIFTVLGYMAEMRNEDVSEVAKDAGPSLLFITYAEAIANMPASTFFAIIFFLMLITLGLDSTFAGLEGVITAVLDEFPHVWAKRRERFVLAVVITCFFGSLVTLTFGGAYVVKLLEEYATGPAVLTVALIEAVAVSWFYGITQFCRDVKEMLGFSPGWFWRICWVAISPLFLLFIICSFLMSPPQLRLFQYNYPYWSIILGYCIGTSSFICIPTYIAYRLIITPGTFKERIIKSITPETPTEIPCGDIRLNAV
Sequence of Histamine H3 receptor (Homo sapiens) (Q9Y5N1 whole entry): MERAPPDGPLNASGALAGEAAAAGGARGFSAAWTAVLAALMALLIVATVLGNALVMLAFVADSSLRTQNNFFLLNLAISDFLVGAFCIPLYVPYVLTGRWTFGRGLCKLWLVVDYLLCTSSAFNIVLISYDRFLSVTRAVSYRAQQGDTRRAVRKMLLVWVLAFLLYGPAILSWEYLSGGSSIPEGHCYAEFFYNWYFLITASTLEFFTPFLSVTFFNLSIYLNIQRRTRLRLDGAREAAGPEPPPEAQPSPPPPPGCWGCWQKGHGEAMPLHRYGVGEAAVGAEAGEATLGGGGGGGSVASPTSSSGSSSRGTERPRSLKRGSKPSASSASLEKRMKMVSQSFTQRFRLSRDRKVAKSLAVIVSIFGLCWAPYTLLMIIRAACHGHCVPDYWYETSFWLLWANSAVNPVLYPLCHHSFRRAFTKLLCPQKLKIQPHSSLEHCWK

As to `CCC[C@@H]1CNCc2c1[nH]c(=O)c(C#N)c2N1CCC2(CC1)CC2`, the inhibition in data set [1] is -1.6%; in [2], 2.9%; in [3], 1.6%; in [4], 12.2%. The IC50 in data set [5] is on record as 7.47 µM (not active).

For the compound `CCC[C@H]1CNCc2c1[nH]c(=O)c(C#N)c2N1CCC2(CC1)CC2`, the inhibition at 10 µM in data set [6] is 29%; in data set [20] it was 2%. In addition, the inhibition was 6.67% in data set [7]; 25% in data set [8]; 28% in data set [9]; 3.5% in data set [10]; -7% in [11]; 10% in data set [12]. Besides, the inhibition in [13] came to 5%; in data set [14], 5%; in data set [15], 5%; in data set [17] it was 6%; in [18], 0%; in data set [19] it was 19%. Also, the inhibition in data set [21] came out at 4%; in data set [22], 8%; in data set [23] it was 2%; in data set [25], 3%; in [26], 6%. The IC50 in data set [16] is recorded as 6.6 µM (not active); in data set [24], 2.98 µM (not active).

As a reminder, the inhibition is the change of the read-out against control, counted positive when it falls. One may read the IC50 as the concentration that inhibits the measured activity by half. Read a low IC50 as higher potency.

(Values after ChEMBL document CHEMBL5303765, “Data for DCP probe BAY-7081” (2023).)
